The values below come from article PMC7362391, “USP30 sets a trigger threshold for PINK1–PARKIN amplification of mitochondrial ubiquitylation” (Life Science Alliance, 2020).

In one test the target is USP6 (Homo sapiens, UniProt P35125). The test can be described thus: DUB profiler selectivity panel (Ubiquigent) at […]. It counts as biochemical.
A further test deals with T1, USP30 (Homo sapiens, UniProt Q70CQ3).
T1 construct: BLI: residues 64-502Δ179-216 & 288-305 (biotinylated); activity assay: residues 57-517
T1 sequence (Q70CQ3 57-517): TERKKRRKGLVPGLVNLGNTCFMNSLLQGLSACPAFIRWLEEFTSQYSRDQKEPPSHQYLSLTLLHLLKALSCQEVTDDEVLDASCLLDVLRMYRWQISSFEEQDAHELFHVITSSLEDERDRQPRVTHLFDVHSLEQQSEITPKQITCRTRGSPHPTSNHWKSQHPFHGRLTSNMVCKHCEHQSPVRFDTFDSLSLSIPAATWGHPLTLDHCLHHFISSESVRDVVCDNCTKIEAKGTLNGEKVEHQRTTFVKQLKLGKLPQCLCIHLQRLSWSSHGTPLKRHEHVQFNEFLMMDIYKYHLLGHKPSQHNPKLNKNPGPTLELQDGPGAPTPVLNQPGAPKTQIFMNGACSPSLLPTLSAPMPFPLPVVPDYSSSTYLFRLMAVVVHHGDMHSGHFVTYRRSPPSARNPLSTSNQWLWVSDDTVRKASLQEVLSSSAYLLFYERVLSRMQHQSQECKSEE
The test can be described thus: bio-layer interferometry (no significant off-rate); IC50 and kinact/KI with purified USP30 and ubiquitin-rhodamine; Ub-PA competition in lysate and cells. Type of test: biochemical. The source says: bio-layer interferometry (no significant off-rate); IC50 and kinact/KI with purified USP30 and ubiquitin-rhodamine; Ub-PA competition in lysate and cells on USP30 | Bio-layer interferometry experiments show binding behaviour that is consistent with covalent modification of USP30
Background: In BLI a coated tip is dipped into the sample, and binding shifts an interference pattern.

Sequence of USP6 (P35125 whole entry): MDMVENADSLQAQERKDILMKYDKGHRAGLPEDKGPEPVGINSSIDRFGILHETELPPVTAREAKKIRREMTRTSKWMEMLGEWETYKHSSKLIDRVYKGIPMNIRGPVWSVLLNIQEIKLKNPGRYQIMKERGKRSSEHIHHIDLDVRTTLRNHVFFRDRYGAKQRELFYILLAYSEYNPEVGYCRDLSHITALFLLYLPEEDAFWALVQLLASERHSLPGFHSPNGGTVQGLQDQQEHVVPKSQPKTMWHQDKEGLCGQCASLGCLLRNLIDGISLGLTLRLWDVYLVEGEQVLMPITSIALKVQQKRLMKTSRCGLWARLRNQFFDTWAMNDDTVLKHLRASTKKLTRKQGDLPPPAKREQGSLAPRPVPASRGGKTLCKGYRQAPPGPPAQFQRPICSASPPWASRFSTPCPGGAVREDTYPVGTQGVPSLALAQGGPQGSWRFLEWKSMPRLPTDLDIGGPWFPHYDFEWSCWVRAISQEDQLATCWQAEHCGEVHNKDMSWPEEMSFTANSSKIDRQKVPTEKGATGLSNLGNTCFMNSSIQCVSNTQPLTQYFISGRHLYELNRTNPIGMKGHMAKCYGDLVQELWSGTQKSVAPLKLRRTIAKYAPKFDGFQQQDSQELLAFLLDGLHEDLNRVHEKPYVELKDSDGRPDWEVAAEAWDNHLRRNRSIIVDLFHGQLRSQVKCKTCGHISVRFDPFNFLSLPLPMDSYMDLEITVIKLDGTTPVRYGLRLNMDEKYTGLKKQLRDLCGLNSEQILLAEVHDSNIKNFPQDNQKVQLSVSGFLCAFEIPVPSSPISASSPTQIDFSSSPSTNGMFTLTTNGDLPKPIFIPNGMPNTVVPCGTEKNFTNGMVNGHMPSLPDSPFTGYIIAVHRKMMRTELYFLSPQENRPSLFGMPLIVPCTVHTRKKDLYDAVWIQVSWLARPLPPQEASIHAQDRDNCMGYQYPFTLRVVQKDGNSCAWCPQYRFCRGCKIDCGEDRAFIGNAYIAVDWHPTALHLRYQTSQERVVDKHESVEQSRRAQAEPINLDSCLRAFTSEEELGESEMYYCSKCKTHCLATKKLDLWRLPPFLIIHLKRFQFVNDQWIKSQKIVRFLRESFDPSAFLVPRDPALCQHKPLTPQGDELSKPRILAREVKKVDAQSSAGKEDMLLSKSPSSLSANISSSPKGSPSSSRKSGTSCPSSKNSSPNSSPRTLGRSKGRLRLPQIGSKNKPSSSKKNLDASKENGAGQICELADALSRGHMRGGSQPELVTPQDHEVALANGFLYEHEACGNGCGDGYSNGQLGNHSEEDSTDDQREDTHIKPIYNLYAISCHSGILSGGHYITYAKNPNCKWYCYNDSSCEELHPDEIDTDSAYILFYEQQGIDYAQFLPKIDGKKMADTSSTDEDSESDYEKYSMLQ

In general, IC50 refers to the concentration that inhibits the measured activity by half. High values mean weaker potency, low ones greater potency. `N#CN1CCC(NC(=O)c2cc(-c3ccccc3Oc3ccccc3)n[nH]2)C1` (centres unmarked) [FT385, FT3967385]: the “DUB profiler selectivity panel (Ubiquigent) at 2, 20 and 200 nM” value on USP6 is listed as “Only one other family member, the plasma membrane–associated USP6, showed a significant degree of inhibition”. At USP30, the IC50 was roughly 1 nM.
